The record followed here is patent publication US4474761A, “Oligopeptides with specific inhibiting properties of collagen induced aggregation, process for preparing the same and pharmaceutical compositions containing them” (Choay S.A., priority 1980, dated 1984).

The test system of the test is platelet membranes. Nature of the test: Linkage of tritiated nonapeptide to platelet membranes (filtration). In kind it is binding. The conditions noted are these: for Linkage (%) after dissociation time: Table IX. The procedure:
The study of the nature of the interaction between type III collagen and platelets is carried out in the presence of tritiated (labelled) nonapeptide of formula: […]
The complete platelets or the platelet membranes solubilized in triton (0.15%) are incubated in a physiological buffer of the type described above in the serotonin release test (in a total volume of 0.2 ml) at a temperature of 37° C. for 15 minutes. The incubation is carried out in presence of tritiated nonapeptide the specific activity of which is of […].
The nonapeptide fixed or linked to the platelet or to the membranes is separated from the free nonapeptide by filtration of the incubation medium through multiporous membranes having porosities of 0.8μ and 0.45μ respectively. The radio activity is directly determined on the filters and the percentage of linkages determined according to the following formula: [formula]
(c) Table VIII relates to the linkage specificity. It represents the linkage percentages between the platelet membranes and different peptides of the invention in the presence of various aggregation inducers (15 ng of peptide, 30 μg of platelet membrane).
The specificity of the linkage is assessed by the total displacement of the corresponding radio-activity by an excess of non labelled peptide of the invention. This excess corresponds to an amount of 100 to 1000 times more than the amount of non labelled peptide which is necessary to induce adhesion of the platelets.
Said reversibility has been studied in the presence of two concentrations of labelled (nona)peptide which are respectively of 3 and 6 ng, for 30 μg of platelet membranes. After the binding of the labelled nonapeptide to the membranes, the incubation media are diluted to the 80 volumes:
in the absence of non labelled (nona)peptide;
and in the presence of an excess of non labelled (nona)peptide (as indicated under c) for the reversibility test).
The percentage of linkage is then determined as a function of an incubation duration ranging from 0 to 15 minutes.
The reversibility is measured by the dissociation factor and the dissociation time.

Where no end group is shown, it is not given here. [ ]: non-standard residue; d: D form. Hyp = O=C(O)[C@@H]1C[C@@H](O)CN1

For `CCCCC/C=C\C/C=C\C/C=C\C/C=C\CCCC(=O)O` [Arachidonic acid, reference compound], the “Linkage % of Nonapeptide H^3 in presence of agent” value (“Linkage %” below) (Table VIII, Nonapeptide H^3 15 ng, platelet membranes 30 μg, agent 6 nM) is listed as 4.1%.
As to `Nc1ncnc2c1ncn2[C@@H]1O[C@H](COP(=O)(O)OP(=O)(O)O)[C@@H](O)[C@H]1O` [ADP, reference compound], the “Linkage %” value (Table VIII, Nonapeptide H^3 15 ng, platelet membranes 30 μg, agent 10^-2 M) is 4.3%.
Turning to GK[Hyp]GE[Hyp]GPK [Nonapeptide H^3], the “Linkage (%) after dissociation time” value by setting is: (Nonapeptide H^3 3 ng, 30 μg membranes, dilution 1/80, 0') 3.2%; (Nonapeptide H^3 3 ng, dilution 1/80 + 100 μg of nonapeptide, 0') 3.2%; (Nonapeptide H^3 3 ng, dilution 1/80 + 100 μg of nonapeptide, 2') 1%; (Nonapeptide H^3 3 ng, dilution 1/80 + 100 μg of nonapeptide, 10') 0.5%; (Nonapeptide H^3 3 ng, dilution 1/80 + 100 μg of nonapeptide, 15') 0.1%; (Nonapeptide H^3 3 ng, dilution 1/80, 2') 1.75%. Further, the “Linkage (%) after dissociation time” value is 1.55% (Nonapeptide H^3 3 ng, dilution 1/80, 5'); 1% (Nonapeptide H^3 3 ng, dilution 1/80, 10'); 0.6% (Nonapeptide H^3 3 ng, dilution 1/80, 15'); 5.9% (Nonapeptide H^3 6 ng, dilution 1/80 + 100 μg of nonapeptide, 0'); 3% (Nonapeptide H^3 6 ng, dilution 1/80 + 100 μg of nonapeptide, 2'); 1.5% (Nonapeptide H^3 6 ng, dilution 1/80 + 100 μg of nonapeptide, 10'). Also, the “Linkage (%) after dissociation time” value is, setting by setting: (Nonapeptide H^3 6 ng, dilution 1/80 + 100 μg of nonapeptide, 15') 1%; (Nonapeptide H^3 6 ng, dilution 1/80, 0') 5.9%; (Nonapeptide H^3 6 ng, dilution 1/80, 2') 4.8%; (Nonapeptide H^3 6 ng, dilution 1/80, 5') 3%; (Nonapeptide H^3 6 ng, dilution 1/80, 10') 2.4%; (Nonapeptide H^3 6 ng, dilution 1/80, 15') 1.5%. The “Linkage (%)” value worked out at 2.1% (Table VI, Nonapeptide H^3 3 ng, proteic concentration 20 μg); 3.8% (Table VI, Nonapeptide H^3 3 ng, proteic concentration 40 μg); 4.3% (Table VI, Nonapeptide H^3 3 ng, proteic concentration 60 μg); 4.6% (Table VI, Nonapeptide H^3 3 ng, proteic concentration 80 μg); 5.3% (Table VI, Nonapeptide H^3 3 ng, proteic concentration 100 μg); 3.5% (Table VI, Nonapeptide H^3 30 ng, proteic concentration 20 μg). In addition, the “Linkage (%)” value worked out at 4.3% (Table VI, Nonapeptide H^3 30 ng, proteic concentration 40 μg); 5% (Table VI, Nonapeptide H^3 30 ng, proteic concentration 60 μg); 5.8% (Table VI, Nonapeptide H^3 30 ng, proteic concentration 80 μg); 6.15% (Table VI, Nonapeptide H^3 30 ng, proteic concentration 100 μg); 10.4% (Table VI, Nonapeptide H^3 30 ng, proteic concentration 200 μg); 13% (Table VI, Nonapeptide H^3 30 ng, proteic concentration 400 μg). Moreover, the “Linkage (%)” value by setting is: (Table VI, Nonapeptide H^3 30 ng, proteic concentration 450 μg) 13.8%; (Table VII, Nonapeptide H^3 3 ng) 1.6%; (Table VII, Nonapeptide H^3 6 ng) 3.5%; (Table VII, Nonapeptide H^3 12 ng) 5.5%; (Table VII, Nonapeptide H^3 60 ng) 7.5%; (Table VII, Nonapeptide H^3 300 ng) 10.5%. The compound further registered a Linkage (%) (Table VIII, Nonapeptide H^3 15 ng, platelet membranes 30 μg, agent 0) of 4%.
For the compound `CNCC(O)c1ccc(O)c(O)c1` (stereo not shown) [Adrenaline, reference compound], for the setting “Table VIII, Nonapeptide H^3 15 ng, platelet membranes 30 μg, agent 100 μg”, the “Linkage %” value was determined as 5.4%.
